Measurements taken from paper PMC8038054, “Bis-3-Chloropiperidines Targeting TAR RNA as A Novel Strategy to Impair the HIV-1 Nucleocapsid Protein” (Molecules, 2021).

How the values were obtained:
[1] = tested on: TAR RNA; experiment: ESI-MS of reaction mixtures of B-CePs with TAR; type: binding, HIV-1
Description: To elucidate the molecular details of the products observed by PAGE, we further characterized the outcome of the reaction with TAR by electrospray ionization-mass spectrometry (ESI-MS). A preliminary determination was accomplished on the individual TAR construct, and a representative ESI-MS spectrum is provided in Figure 4A. Only the region containing the 5-charge state is shown for the sake of clarity. The detected species labelled [TAR-5H]^5− in Figure 4A afforded an experimental mass of 9286.25 Da, which matches the monoisotopic value of 9286.24 Da calculated from the RNA sequence very closely (Table 1). Successively, we performed the experiment by reacting compound 1 with TAR at 1 μM. After 2 h of incubation, at 37 °C, the reaction mixture was submitted to ethanol precipitation to achieve quenching and desalting, which enabled a direct infusion ESI-MS analysis. […] In the presence of nucleic acids, aziridinium preferentially attacks N7 of guanines on the substrate, forming different types of adduct (Scheme S1 in Supplementary Materials).^22 Analyzing a new species in Figure 4B, their masses matched those of products generated by either mono- or bis-alkylation reactions. The species TAR + 1B, displaying a mass of 9548.49 u, corresponded to bi-functional adducts formed by the reaction of both 3-chloropiperidine reactive moieties with the RNA strand (labelled [TAR + 1B − 5H]^5− in the inset in Figure 4B). Differently, TAR + 1M species with a mass of 9566.49 u was assigned to mono-functional adducts, in which only one of the 3-chloropiperidines reacted with the substrate, whereas the other was hydrolyzed to 3-hydroxyl by the aqueous environment (labelled [TAR + 1M − 5H]^5− in the inset in Figure 4B). Table 1 summarizes the experimental and calculated masses of the new products and provides the assignment of the various species detected in Figure 4B.
Figure 4 Representative electrospray-ionization mass spectrometry (ESI-MS) spectra of reaction mixtures obtained by incubating TAR (1 μM) with increasing B-CeP 1 (A:0, B:1, C:10, D:50 μM) at 37 °C for 2 h in a BPE buffer (pH 7.4). The spectra B–D show the concentration-dependent reactions induced by B-CeP 1 on TAR. Greater stoichiometries corresponding to combinations of mono- and bi-functional adducts, were detected and indicated in orange in the figure. The spectra were recorded in 150 mM ammonium acetate. Lower intensity signals near free/adducted species consist of typical sodium and ammonium adducts. Only region containing the 5-charge state is shown for the sake of clarity.
The results shown in Figure 4C,D show the reaction products obtained, further increasing the concentration of compound 1, with 1 μM TAR solution incubated with 10 and 50 μM of B-CeP 1, respectively. […]

[2] = cited from earlier work
[3] = tested on: TAR RNA; experiment: Electrophoretic Mobility Shift Assay (EMSA), non-denaturing PAGE; type: binding, HIV-1; settings: 1 μM folded TAR, 0-50 μM compound, 2 h 37 °C, BPE buffer pH 7.4
Protocol: To further evaluate the interaction of B-CePs to TAR RNA, Electrophoretic Mobility Shift Assay (EMSA) was used as a simple tool to visualize the putative interaction of compound 1 with TAR. The RNA was folded in its hairpin secondary structure, incubated for 2 h at 37 °C with increasing concentrations of compound 1 (0, 1, 5, 10, 25, 35, 50 μM), and the reaction products were resolved by polyacrylamide gel electrophoresis (PAGE). Figure 3 provides the results obtained in non-denaturing PAGE.
Figure 3 Non-denaturing polyacrylamide gel electrophoresis (PAGE) (PAA 12%) in TBE 1× showing the concentration-dependence of the interaction of B-CeP 1 with TAR. Folded TAR hairpin 1 μM was incubated with increasing concentrations of compound (0, 1, 5, 10, 25, 35, 50 μM) for 2 h at 37 °C with a BPE buffer (pH 7.4).
Electrophoretic Mobility Shift Assay (EMSA) was used to assess the ability of compound 1 to directly interact to TAR RNA construct. Prior to incubation with compound, TAR RNA was heated to 95 °C for 5 min and then ice-cooled in order to assume the proper hairpin structure. TAR RNA construct (1 μM) was then incubated with increasing concentrations (from 0 to 50 μM) of B-CeP 1, at 37 °C for 2 h in 1× BPE buffer (pH 7.4). […] Fluorescence in gel system was detected on a Geliance 600 Imaging System (PerkinElmer, Waltham, MA, USA).

[4] = tested on: recombinant full-length HIV-1 NC; experiment: High-throughput screening (HTS): inhibition of NC-mediated melting of TAR RNA hairpin; type: biochemical; settings: 0.1 μM TAR, 0.8 μM NC, compound pre-incubated 37 °C 2 h; mean of three experiments; read-out: IC50, inhibition of NC-mediated melting of individual TAR RNA hairpin
Protocol: This assay is based on the doubly labeled TAR construct used above in the FQA experiments and is extensively employed to screen for inhibitors of NC melting activity. After preliminary controls to ensure the absence of direct quenching activity by the compounds under investigation, their ability to inhibit TAR RNA melting was evaluated in the presence of recombinant full-length HIV-1 NC. By adding increasing amounts of B-CePs, we determined the concentration of each compound that induced a 50% reduction in the destabilizing activity of NC (i.e., IC50) on TAR.
High-throughput screening (HTS) was performed to identify the inhibitors of NC chaperone activity on TAR. We used a VictorIII (PerkinElmer) microplate reader with 485 and 535 nm as the excitation and emission wavelengths. The TAR RNA hairpin was formed by snap cooling in the 1× BPE buffer, as described above. A 1 μM aliquot of TAR, which bore 5′-FAM and 3′-DAB modifications, was folded in 1× BPE buffer. The samples were then diluted to 0.1 μM in 1× BPE buffer. Increasing concentrations of compound (0, 0.1, 0.5, 1, 5, 10, 50, 100 μM final) were added to each sample and incubated at 37 °C for 2 h before introducing NC to a final concentration of 0.8 μM (for a 1:8 oligo to NC molar ratio). The plate was immediately read at room temperature three times with 1 min intervals, unless differently specified. The experimental data were fitted as reported earlier to enable calculation of the respective IC50 value.16 Each experiment was performed in triplicate to calculate an average and standard deviation.

[5] = tested on: TAR RNA; experiment: Fluorescence quenching assay (FQA): thermal melting of TAR RNA hairpin; type: binding, HIV-1; settings: 10 μM compound, 1 μM TAR, 37 °C 2 h, BPE buffer
Description: A first insight into the putative interaction of B-CePs with RNA was offered by the investigation of the ability of the selected compounds to stabilize the TAR hairpin structure. We employed fluorescence quenching assays (FQA) to measure the ability of each B-CeP to modify the thermal denaturation profile of the TAR construct shown in Figure 1A, which was functionalized at both termini with a fluorophore-quencher couple. In this way, thermal melting of the structure can be assessed from the intensity of the detected fluorescence signal. The melting profile of TAR in the presence of increasing concentrations of each compound allowed an evaluation of the shift in melting temperature (ΔTm) from the reference value, which was determined in the absence of compound. Sample solutions contained 1 μM of RNA substrate and 10, 50 or 100 μM of each B-CePs compound. Figure 2 summarizes the values of ΔTm obtained by adding increasing concentrations of B-CePs 1–5. […]
The ability of the tested compounds to stabilize the TAR RNA structure was measured by the increase in the melting temperature of the oligoribonucleotide in the presence of different concentrations of each compound. […] Fluorescence emission of FAM was read by using a Light Cycler 480 II (Roche, Basel, CH) with emission at λ = 510 nm and correlated to the melting temperature of the oligoribonucleotide. […]

CC1(C)CC(Cl)CN(CCCN2CC(Cl)CC(C)(C)C2)C1 (centres unmarked) [Compound 1]
Binding stoichiometries on TAR detected by ESI-MS ([1]; 1 μM TAR with 10 and 50 μM compound): up to five equivalents
Products of the reaction with TAR detected by ESI-MS ([1]; 1 μM TAR, 37 °C 2 h, BPE buffer): covalent adducts
Fragmentation of the oligoribonucleotide chain of TAR RNA ([1]; ESI spectrometry and gel electrophoresis): not detected
Cytotoxicity ([2]; ref [22],[25]): low cytotoxicity
Concentration at which binding events (band shift) reach a plateau [3]: 25 µM
IC50 [4]: 4.75 ± 0.15 µM

CC1(C)CC(Cl)CN(CCCCCN2CC(Cl)CC(C)(C)C2)C1 (centres unmarked) [Compound 2]
Relative reactivity towards the TAR construct (comparison of ESI-MS spectra) ([1]; same B-CeP/TAR molar ratio (10 μM compound, 1 μM TAR)): most reactive
Effect of the longer linker on cell permeability and cytotoxicity ([2]; ref [26]): increases cell permeability and cytotoxicity
IC50 [4]: 2.75 ± 0.7 µM

CC1(C)CC(Cl)CN(CCCCCCN2CC(Cl)CC(C)(C)C2)C1 (centres unmarked) [Compound 3]
IC50 [4]: 3.55 ± 0.37 µM

COC(=O)[C@H](CCCCN1CC(Cl)CC(C)(C)C1)N1CC(Cl)CC(C)(C)C1 (some centres unmarked) [Compound 4]
Tm increase of TAR RNA (stabilization effect) [5]: much weaker stabilization effect
IC50 [4]: 5.09 ± 0.05 µM

COC(=O)[C@@H](CCCCN1CC(Cl)CC(C)(C)C1)N1CC(Cl)CC(C)(C)C1 (some centres unmarked) [Compound 5]
Tm increase of TAR RNA (stabilization effect) [5]: much weaker stabilization effect
IC50 [4]: 4.78 ± 0.71 µM
